According to patent publication US12660820B2, “Heterocyclic compound and harmful arthropod-controlling composition including same” (SUMITOMO CHEMICAL COMPANY, LIMITED, priority 2020, dated 2026):

Tested on: cotton aphids (Aphis gossypii)
Assay: Test Method 9: foliar spray on cucumber seedling infested with cotton aphids (Formulation Example 5)
Assay type: in vivo
Details: Test Example 9-1; 200 ppm; 5 days after spraying
Experimental: Cucumber (Cucumis sativus) seedling (on the developmental stage of the second true leaf) is planted in a container and approximately 30 cotton aphids (Aphis gossypii) (all developmental stages of life) are released onto the leaves of the cucumber. After 1 day, the diluted solutions are sprayed to the seedling at a ratio of 10 mL/seedling. Further, after 5 days, the number of the surviving insects is examined and the controlling value is calculated by the following equation. Controlling value (%)={1−(Cb×Tai)/(Cai×Tb)}×100 wherein the symbols in the formula represent the following descriptions. • Cb: Number of the test insects in untreated group; • Cai: Number of the surviving insects at the time of the investigation in untreated group; • Tb: Number of the test insects in treated group; • Tai: Number of the surviving insects at the time of the investigation in treated group; Here the “untreated group” represents a group where the similar treatment procedure to that of the treated group except not using the test compound is done.

CCS(=O)(=O)c1c(-c2cnc3cc(C(F)(F)F)ccn3c2=O)nc2cc(C(F)(F)F)ccn12 [compound 6]
Controlling value: ≥ 90%
